The values below come from patent US11833148B2, “Methods for treating or limiting development of cardiovascular disease-related neurological disorders” (ARIZONA BOARD OF REGENTS ON BEHALF OF THE UNIVERSITY OF …, priority 2018, dated 2023).

What all share (type): in vivo
For series [1], the system named is TAC mice. In words: Observation of adverse events after TAC surgery combined with Mas agonist treatment. The settings on record: daily SQ 2 mg/kg/mouse. The procedure: (§1) Treatment was initiated one week after TAC surgery (daily SQ injections at a dose of 2 mg/kg/mouse) when aortic constriction was confirmed. The treatment groups (n=12 per groups) included sham surgery controls treated with saline, TAC surgery controls treated with saline, TAC surgery animals treated with A (1-7), TAC surgery animals treated with Compound 7 and TAC surgery animals treated with Compound 10. Blood pressure was measured approximately 5-6 weeks after surgery by tail cuff and unaffected by Compound 7 or Compound 10. […] Novel object recognition (NOR) is a test of non-spatial memory. […] The preference of the animal for a novel object over a familiar object exploits the natural tendency of rodents to explore novel objects, was tested 10 weeks after surgery.

Series [2] deals with TAC mice. In words: Novel object recognition (NOR) test in TAC mice. The settings on record: daily SQ 2 mg/kg/mouse, 10 weeks post-surgery, compared to saline treated TAC mice. The protocol: FIG. 4 is a graph showing the effects of treatment on novel object recognition (NOR). At 10 weeks post-surgery, the mice underwent NOR test to assess cognitive function.
as §1

In series [3] the test system is hippocampal cytokine levels (IL-2, IL-10, IL-4, IL-5, IL-6, IL-12p70, IFNγ, KC/GRO, TNFα, IL-10). The experiment in a line: Hippocampal cytokine levels in TAC mice by multi-plexed immunoassay (Meso Scale Discovery). The settings on record: daily SQ 2 mg/kg/mouse, compared to saline treated TAC controls, data not shown. The protocol:
as §1

Series [4] relates to TAC mice. The experiment in a line: Blood pressure by tail cuff in trans-aortic constriction (TAC) mice. The settings on record: daily SQ 2 mg/kg/mouse; for diastolic blood pressure / mean arterial pressure (MAP): approximately 5-6 weeks post-surgery, 30 minutes after dosing, compared to saline treated TAC mice. The procedure: FIG. 1 is a graph showing the effects of treatment on systolic blood pressure. At approximately 5-6 weeks post-surgery, systolic blood pressure was measured 30 minutes after dosing by tail cuff.
FIG. 2 is a graph showing the effects of treatment on diastolic blood pressure. At approximately 5-6 weeks post-surgery, diastolic blood pressure was measured 30 minutes after dosing by tail cuff.
FIG. 3 is a graph showing the effects of treatment on mean arterial pressure (MAP). At approximately 5-6 weeks post-surgery, mean arterial pressure was measured 30 minutes after dosing by tail cuff.
as §1

“Also recorded” adds a separate entry of the source.

As to `CCCCOC(=O)NS(=O)(=O)c1ccc(OC(F)(F)F)cc1-c1ccc(Cn2ccnc2)cn1` [Compound 7], the observable adverse events entry in the series on TAC mice [1] is “no observable adverse events”. Besides, the “novel object recognition (NOR) memory / cognitive function” value in the series on TAC mice [2] is recorded as “restored NOR memory to sham levels; also recorded: significantly increased cognition”. Also, the “hippocampal levels of all cytokines tested (IL-2, IL-10, IL-4, IL-5, IL-6, IL-12p70, IFNγ, KC/GRO, TNFα, IL-10)” value in series [3] is “decreased”. Further, in the series with TAC mice [4] (approximately 5-6 weeks after surgery), the blood pressure result is “unaffected”. Besides, in the series with TAC mice [4], the diastolic blood pressure result is on record as “no significant effect” and the “mean arterial pressure (MAP)” value was “no significant effect”.
As to “A (1-7): comparator treatment in TAC mice, printed only as A (1-7) (DRVYIHP; Angiotensin 1-7; UniProt P01019 25-31, looked up) [reference compound]”, in the series with TAC mice [4], the diastolic blood pressure entry was “significantly reduced” and the “mean arterial pressure (MAP)” value is reported as “significantly reduced”.
